# Patent publication US10695296B2, “Formulations, methods, kit, and dosage forms for improved stability of an active pharmaceutical ingredient” (Asana BioSciences, LLC, priority 2017, dated 2020)
# Read-outs that look alike come from different tables or passages of the source.
# Test: PK characteristics in humans (plasma, LC/MS/MS)
# Type: in vivo, human
# Conditions: for Cmax / half-life / Tmax / AUC(0-t): human, plasma; for Cmax: read-out: Cmax; for Tmax: read-out: Tmax
# Method: A pharmaceutical formulation of the disclosure comprising the active ingredient N-(3-(2-(6-amino-4-(trifluoromethyl)pyridin-3-yl)-4-morpholinopyrido[3,2-d]pyrimidin-6-yl)-2-fluorophenyl)-3-fluoropropane-1-sulfonamide was evaluated for safety/tolerability and preliminary efficacy in eligible human subjects with advanced solid tumors, and the pharmacokinetic (PK) profile of the active ingredient was investigated for each subject. Eligibility criteria for inclusion in this study included:
# Fifteen eligible patients were enrolled in total daily dose levels ranging from 10-800 mg per day of the active ingredient, provided as 10-mg, 20-mg, 80-mg and 120-mg tablets for oral administration. Dose escalation is ongoing. All study medication supplies were provided by Asana BioSciences, LLC (Bridgewater, N.J.). The tablets were administered orally every 12-24 hours on an empty stomach (either 1 hour before or 2 hours after a meal or snack) with approximately 240 mL of water. On study days in which there was a single plasma PK sample taken, the subject was instructed to fast for at least 2 hours prior to collection of the PK sample. On study days with multiple plasma PK samples taken, the subject was instructed to fast overnight (at least 8 hours prior to study drug administration) and remain fasting for 2 hours after study drug administration. The date and time of the dose(s) taken prior to or on PK sampling days were collected by the study site or catalogued via a diary card provided to the subject.
# An ultra performance liquid chromatographic method was used for the determination of the active ingredient in human EDTA K2 plasma. This method was validated over an analytical range of 0.5 to 500 ng/mL. Calibration standards (CS) and quality control (QC) samples at three or four levels of concentrations were prepared fresh from the appropriate working solutions which were stored at −20° C. The human EDTA K2 plasma used for the preparation of CS and QC samples was obtained from Bioreclamation (Westbury, Pa., USA) and analyzed to determine possible interference with the analyte or the internal standard, and no significant interference was observed. The following parameters were used to determine analyte levels in the plasma samples: […]
# [1] = oral, 40 mg, Day 15, 40 mg, n=2, mean
# [2] = oral, 40 mg, steady state, 40 QD mg, n=2, mean, cancer patients
# [3] = oral, 80 mg, Day 1, 80 mg, n=2, mean
# [4] = oral, 80 mg, Day 15, 80 mg, n=2, mean
# [5] = oral, 80 mg, steady state, 80 QD mg, n=2, mean, cancer patients
# [6] = oral, 240 mg, Day 1, 240 mg, n=2, mean
# [7] = oral, 240 mg, Day 15, 240 mg, n=2, mean
# [8] = oral, 240 mg, steady state, 240 QD mg, n=2, mean, cancer patients
# [9] = oral, 400 mg, Day 1, 400 bid mg, individual subjects
# [10] = oral, 400 mg, Day 1, 400 bid mg, mean
# [11] = oral, 400 mg, Day 15, 400 QD mg, n=2, mean
# [12] = oral, 400 mg, Day 15, 400 bid mg, n=1
# [13] = oral, 400 mg, steady state, 400 BID mg, n=1, cancer patients
# [14] = oral, 400 mg, steady state, 400 QD mg, n=2, mean, cancer patients
smiles,measurement,setting,value
"Nc1cc(C(F)(F)F)c(-c2nc(N3CCOCC3)c3nc(-c4cccc(NS(=O)(=O)CCCF)c4F)ccc3n2)cn1 [CMPD A, N-(3-(2-(6-amino-4-(trifluoromethyl)pyridin-3-yl)-4-morpholinopyrido[3,2-d]pyrimidin-6-yl)-2-fluorophenyl)-3-fluoropropane-1-sulfonamide]",Cmax,[1],348 ng/mL
same,half-life,"oral, 40 mg, Day 15, 40 mg, n=2, mean, read-out: T1/2 (converted)",35.1 h
same,Tmax,[1],4 h
same,AUC(0-t),"oral, 40 mg, steady state, 40 QD mg, n=2, mean, cancer patients, read-out: AUC0-24h",5890 ng·h/mL
same,Cmax,[2],348 ng/mL
same,Tmax,[2],4 h
same,half-life,"oral, 80 mg, Day 1, 80 mg, individual subject (other NC), read-out: T1/2 (converted)",22.4 h
same,Cmax,"oral, 80 mg, Day 1, 80 mg, individual subjects",470 ng/mL
same,AUC(0-t),"oral, 80 mg, Day 1, 80 mg, n=2, mean, read-out: AUC0-24",6050 ng·h/mL
same,Cmax,[3],384 ng/mL
same,Tmax,[3],14 h
same,half-life,"oral, 80 mg, Day 15, 80 mg, individual subject (other NC), read-out: T1/2 (converted)",48.7 h
same,AUC(0-t),"oral, 80 mg, Day 15, 80 mg, individual subjects, read-out: AUC0-24",19000 ng·h/mL
same,Cmax,"oral, 80 mg, Day 15, 80 mg, individual subjects",931 ng/mL
same,AUC(0-t),"oral, 80 mg, Day 15, 80 mg, n=2, mean, read-out: AUC0-24",20100 ng·h/mL
same,Cmax,[4],1060 ng/mL
same,Tmax,[4],14 h
same,AUC(0-t),"oral, 80 mg, steady state, 80 QD mg, n=2, mean, cancer patients, read-out: AUC0-24h",20100 ng·h/mL
same,Cmax,[5],1060 ng/mL
same,Tmax,[5],14 h
same,AUC(0-t),"oral, 120 mg, Day 1, 120 mg, n=3, mean, read-out: AUC0-24",6660 ng·h/mL
same,Cmax,"oral, 120 mg, Day 1, 120 mg, n=3, mean",509 ng/mL
same,half-life,"oral, 120 mg, Day 1, 120 mg, n=3, mean, read-out: T1/2 (converted)",24.9 h
same,Tmax,"oral, 120 mg, Day 1, 120 mg, n=3",4 h
same,AUC(0-t),"oral, 120 mg, Day 15, 120 mg, n=3, mean, read-out: AUC0-24",10100 ng·h/mL
same,Cmax,"oral, 120 mg, Day 15, 120 mg, n=3, mean",728 ng/mL
same,half-life,"oral, 120 mg, Day 15, 120 mg, n=3, mean, read-out: T1/2 (converted)",24.1 h
same,Tmax,"oral, 120 mg, Day 15, 120 mg, n=3",4 h
same,Tmax,"oral, 120 mg, steady state, 120 QD mg, n=3, cancer patients",4 h
same,AUC(0-t),"oral, 120 mg, steady state, 120 QD mg, n=3, mean, cancer patients, read-out: AUC0-24h",10100 ng·h/mL
same,Cmax,"oral, 120 mg, steady state, 120 QD mg, n=3, mean, cancer patients",728 ng/mL
same,AUC(0-t),"oral, 240 mg, Day 1, 240 mg, n=2, mean, read-out: AUC0-24",6930 ng·h/mL
same,Cmax,[6],520 ng/mL
same,half-life,"oral, 240 mg, Day 1, 240 mg, n=2, mean, read-out: T1/2 (converted)",17.5 h
same,Tmax,[6],5 h
same,Tmax,"oral, 240 mg, Day 15, 240 mg, individual subjects",2 h
same,AUC(0-t),"oral, 240 mg, Day 15, 240 mg, n=2, mean, read-out: AUC0-24",14900 ng·h/mL
same,Cmax,[7],954 ng/mL
same,half-life,"oral, 240 mg, Day 15, 240 mg, n=2, mean, read-out: T1/2 (converted)",19.7 h
same,Tmax,[7],2 h
same,AUC(0-t),"oral, 240 mg, steady state, 240 QD mg, n=2, mean, cancer patients, read-out: AUC0-24h",14900 ng·h/mL
same,Cmax,[8],954 ng/mL
same,Tmax,[8],2 h
same,half-life,"oral, 400 mg, Day 1, 400 QD mg, individual subjects, read-out: T1/2 (converted)",15.2 h
same,AUC(0-t),"oral, 400 mg, Day 1, 400 QD mg, n=2, mean, read-out: AUC0-24",15000 ng·h/mL
same,Cmax,"oral, 400 mg, Day 1, 400 QD mg, n=2, mean",1070 ng/mL
same,half-life,"oral, 400 mg, Day 1, 400 QD mg, n=2, mean, read-out: T1/2 (converted)",15.4 h
same,Tmax,"oral, 400 mg, Day 1, 400 QD mg, n=2",2 h
same,AUC(0-t),"oral, 400 mg, Day 1, 400 bid mg, individual subjects, read-out: AUC0-24",32100 ng·h/mL
same,Cmax,[9],2330 ng/mL
same,half-life,"oral, 400 mg, Day 1, 400 bid mg, individual subjects, read-out: T1/2 (converted)",22.5 h
same,Tmax,[9],8 h
same,AUC(0-t),"oral, 400 mg, Day 1, 400 bid mg, mean, read-out: AUC0-24",26300 ng·h/mL
same,Cmax,[10],1880 ng/mL
same,half-life,"oral, 400 mg, Day 1, 400 bid mg, mean, read-out: T1/2 (converted)",18.6 h
same,Tmax,[10],6 h
same,AUC(0-t),"oral, 400 mg, Day 15, 400 QD mg, individual subjects, read-out: AUC0-24",25500 ng·h/mL
same,Cmax,"oral, 400 mg, Day 15, 400 QD mg, individual subjects",2770 ng/mL
same,half-life,"oral, 400 mg, Day 15, 400 QD mg, individual subjects, read-out: T1/2 (converted)",10.1 h
same,AUC(0-t),"oral, 400 mg, Day 15, 400 QD mg, n=2, mean, read-out: AUC0-24",33400 ng·h/mL
same,Cmax,[11],2850 ng/mL
same,half-life,"oral, 400 mg, Day 15, 400 QD mg, n=2, mean, read-out: T1/2 (converted)",10.9 h
same,Tmax,[11],4.5 h
same,AUC(0-t),"oral, 400 mg, Day 15, 400 bid mg, n=1, read-out: AUC0-24",110000 ng·h/mL
same,Cmax,[12],5900 ng/mL
same,Tmax,[12],2 h
same,AUC(0-t),"oral, 400 mg, steady state, 400 BID mg, n=1, cancer patients, read-out: AUC0-24h",110000 ng·h/mL
same,Cmax,[13],5990 ng/mL
same,Tmax,[13],2 h
same,AUC(0-t),"oral, 400 mg, steady state, 400 QD mg, n=2, mean, cancer patients, read-out: AUC0-24h",33400 ng·h/mL
same,Cmax,[14],2850 ng/mL
same,Tmax,[14],4.5 h
same,half-life,"po, human subjects, oral tablets, read-out: Effective t½ (converted)",~24 h
same,half-life,"po, human subjects, oral tablets, read-out: t1/2 (rate of elimination)",10 to 25 h
same,Cmin,"steady state, 10 QD mg, n=1, cancer patients",16.0 ng/mL
same,Cmin,"steady state, 20 QD mg, n=1, cancer patients",76.4 ng/mL
same,Cmin,"steady state, 40 QD mg, n=2, mean, cancer patients",167 ng/mL
same,Cmin,"steady state, 80 QD mg, n=2, mean, cancer patients",614 ng/mL
same,Cmin,"steady state, 120 QD mg, n=3, mean, cancer patients",239 ng/mL
same,Cmin,"steady state, 240 QD mg, n=2, mean, cancer patients",463 ng/mL
same,Cmin,"steady state, 400 BID mg, n=1, cancer patients",3718 ng/mL
same,Cmin,"steady state, 400 QD mg, n=2, mean, cancer patients",589 ng/mL
